These are literature values, as cited in paper PMC3433420 (PLoS ONE, 2012).

Where two headings read alike, the source gives them in different places.

The series concerns the target SH2 and PTB domains. The conditions noted are these: cited from earlier work. The text has this: Supplement pone.0044471.s022.xlsx, sheet "Most recent PM interactions" | column: Kd || Supplement pone.0044471.s022.xlsx, sheet "All original PM interactions" | column: Kd
The mark [1] stands for this setting: Protein ABL2, most recent PM interactions, ref Jones et al. 2006 / Kaushansky et al. Mol Biosys 2008 / Kaushansky et al. Chem and Biol 2008.
Where [2] appears, read: Protein BLK, most recent PM interactions, ref Jones et al. 2006 / Kaushansky et al. Mol Biosys 2008 / Kaushansky et al. Chem and Biol 2008.
Setting [3] is: protein ABL2, ref Kaushansky et al. Chem and Biol 2008.

Consider ELMTFGSKPpYDGIPASEd [ErbB1 915], for which the Kd was 180 nM under setting [1]; 1180 nM under setting [2]; 1410 nM (Protein RASA1-N, most recent PM interactions, ref Jones et al. 2006 / Kaushansky et al. Mol Biosys 2008 / Kaushansky et al. Chem and Biol 2008); 1060 nM (Protein SHB, most recent PM interactions, ref Jones et al. 2006 / Kaushansky et al. Mol Biosys 2008 / Kaushansky et al. Chem and Biol 2008); 1550 nM (Protein SYK-NC, most recent PM interactions, ref Jones et al. 2006 / Kaushansky et al. Mol Biosys 2008 / Kaushansky et al. Chem and Biol 2008); 330 nM (Protein YES1, most recent PM interactions, ref Jones et al. 2006 / Kaushansky et al. Mol Biosys 2008 / Kaushansky et al. Chem and Biol 2008).
Consider “VSVPpYRAPTSTI [ErbB4 pY1081, N-terminally rhodamine-labeled 13-mer phosphopeptide]”, for which the Kd is 1230 nM under setting [3]; 1240 nM (protein CRKL, ref Kaushansky et al. Chem and Biol 2008).
In the case of “PPPApYTPMSGNQd [ErbB4 pY1056, N-terminally rhodamine-labeled 13-mer phosphopeptide]”, the Kd reads like this: under setting [3], 660 nM; (protein PIK3R1-N, ref Kaushansky et al. Chem and Biol 2008) 540 nM; (protein PIK3R1-NC, ref Kaushansky et al. Chem and Biol 2008) 1440 nM; (protein PIK3R2-N, ref Kaushansky et al. Chem and Biol 2008) 200 nM; (protein PIK3R2-NC, ref Kaushansky et al. Chem and Biol 2008) 460 nM; (protein PIK3R3-N, ref Kaushansky et al. Chem and Biol 2008) 890 nM. Besides, under “protein PIK3R3-NC, ref Kaushansky et al. Chem and Biol 2008”, the Kd is 580 nM.
Take “DNPDpYWHSRLFPd [ErbB3 pY1328, N-terminally rhodamine-labeled 13-mer phosphopeptide]”: the Kd is, setting by setting: (protein ABL2, ref Jones et al. 2006 / Kaushansky et al. Chem and Biol 2008) 600 nM; (protein HSH2D, ref Jones et al. 2006 / Kaushansky et al. Chem and Biol 2008) 1700 nM; (protein MATK, ref Jones et al. 2006 / Kaushansky et al. Chem and Biol 2008) 1870 nM; (protein NCK2, ref Jones et al. 2006 / Kaushansky et al. Chem and Biol 2008) 1900 nM; (protein RASA1-NC, ref Jones et al. 2006 / Kaushansky et al. Chem and Biol 2008) 1920 nM; (protein SHC1-PTB, ref Jones et al. 2006 / Kaushansky et al. Chem and Biol 2008) 220 nM. Further, the Kd is 1980 nM (protein SYK-NC, ref Jones et al. 2006 / Kaushansky et al. Chem and Biol 2008); 1250 nM (protein TENC1, ref Jones et al. 2006 / Kaushansky et al. Chem and Biol 2008); 850 nM (protein TNS4, ref Jones et al. 2006 / Kaushansky et al. Chem and Biol 2008).
As to FGGAVENPEpYLTPQGGA [ErbB2 1196], the Kd (Protein ABL2, most recent PM interactions, ref Jones et al. 2006 / Kaushansky et al. Chem and Biol 2008) is 480 nM; the Kd (Protein CRKL, most recent PM interactions, ref Jones et al. 2006 / Kaushansky et al. Chem and Biol 2008) is 1440 nM; the Kd (Protein FGR, most recent PM interactions, ref Jones et al. 2006 / Kaushansky et al. Chem and Biol 2008) is 1680 nM; the Kd (Protein GRB2, most recent PM interactions, ref Jones et al. 2006 / Kaushansky et al. Chem and Biol 2008) is 1330 nM; the Kd (Protein ITK, most recent PM interactions, ref Jones et al. 2006 / Kaushansky et al. Chem and Biol 2008) was 770 nM; the Kd (Protein NCK2, most recent PM interactions, ref Jones et al. 2006 / Kaushansky et al. Chem and Biol 2008) was 1100 nM. Moreover, the Kd (Protein PIK3R1-NC, most recent PM interactions, ref Jones et al. 2006 / Kaushansky et al. Chem and Biol 2008) is 230 nM; the dissociation constant Kd (Protein PIK3R2-N, most recent PM interactions, ref Jones et al. 2006 / Kaushansky et al. Chem and Biol 2008) was 1280 nM; the Kd (Protein PIK3R3-N, most recent PM interactions, ref Jones et al. 2006 / Kaushansky et al. Chem and Biol 2008) is 1390 nM; the Kd (Protein PIK3R3-NC, most recent PM interactions, ref Jones et al. 2006 / Kaushansky et al. Chem and Biol 2008) was 1340 nM; the Kd (Protein PLCG2-NC, most recent PM interactions, ref Jones et al. 2006 / Kaushansky et al. Chem and Biol 2008) was 1350 nM; the equilibrium dissociation constant (Kd) (Protein RASA1-N, most recent PM interactions, ref Jones et al. 2006 / Kaushansky et al. Chem and Biol 2008) was 670 nM. For the same substance, the Kd was 350 nM (Protein SHC1-PTB, most recent PM interactions, ref Jones et al. 2006 / Kaushansky et al. Chem and Biol 2008); 1240 nM (Protein SYK-C, most recent PM interactions, ref Jones et al. 2006 / Kaushansky et al. Chem and Biol 2008); 1330 nM (Protein SYK-NC, most recent PM interactions, ref Jones et al. 2006 / Kaushansky et al. Chem and Biol 2008); 1250 nM (Protein VAV1, most recent PM interactions, ref Jones et al. 2006 / Kaushansky et al. Chem and Biol 2008); 230 nM (Protein VAV2, most recent PM interactions, ref Jones et al. 2006 / Kaushansky et al. Chem and Biol 2008); 600 nM (Protein VAV3, most recent PM interactions, ref Jones et al. 2006 / Kaushansky et al. Chem and Biol 2008). The dissociation constant Kd (Protein YES1, most recent PM interactions, ref Jones et al. 2006 / Kaushansky et al. Chem and Biol 2008) was 1190 nM.
For THDPSPLQRpYSEDPTVPd [ErbB2 1112], the Kd is 760 nM (Protein BLK, most recent PM interactions, ref Kaushansky et al. Chem and Biol 2008); 1060 nM (Protein PLCG2-NC, most recent PM interactions, ref Kaushansky et al. Chem and Biol 2008).
On to “QNPVpYHNQPLNPd [ErbB1 pY1110, N-terminally rhodamine-labeled 13-mer phosphopeptide]”, for which the Kd is 520 nM (protein ABL1, ref Jones et al. 2006 / Kaushansky et al. Mol Biosys 2008 / Kaushansky et al. Chem and Biol 2008); 60 nM (protein ABL2, ref Jones et al. 2006 / Kaushansky et al. Mol Biosys 2008 / Kaushansky et al. Chem and Biol 2008); 2000 nM (protein GRB2, ref Jones et al. 2006 / Kaushansky et al. Mol Biosys 2008 / Kaushansky et al. Chem and Biol 2008); 2000 nM (protein NCK2, ref Jones et al. 2006 / Kaushansky et al. Mol Biosys 2008 / Kaushansky et al. Chem and Biol 2008); 320 nM (protein SHC1-PTB, ref Jones et al. 2006 / Kaushansky et al. Mol Biosys 2008 / Kaushansky et al. Chem and Biol 2008).
For KLLGAEEKEpYHAEGGKVd [ErbB1 869], the Kd is 1080 nM under setting [1] and 1710 nM under setting [2].
